Like-named read-outs stand apart in the source and are kept apart here.
Columns and labels:
Liposome pulldown = format: binding; settings: 1 µg defensin; for Fraction of total protein (%), bound fraction: pH 5.5 (20 mM MES); for Fraction of total protein (%), Bound: pH 7.4
Method: (§1) Liposomes were prepared using natural chicken egg L-α-phophatidylcholine and L-α-phosphatidic acid dissolved in chloroform (Avanti Polar Lipids), and liposome pulldowns (at pH 7.4) and calcein-encapsulated liposome lysis assays were performed as previously described. For liposome pulldowns performed at pH 5.5, the same protocol was used with minor variations. The desiccated lipid films were resuspended in 20 mM MES pH 7.4 and were washed in the same buffer during the centrifugation process. After the final wash step, the liposome pellets were resuspended in 20 mM MES pH 5.5 and incubated with CpoBD13 or mutants thereof (also prepared in the same acidic buffer).

C. albicans ATCC 10231 = test: Fungal growth inhibition assay; format: cell-based, Candida albicans; settings: 24 h; for IC50: unit not in table, µM, read-out: IC50
Method: For fungal growth assays, overnight cultures of C. albicans ATCC 10231 cells (yeast peptone dextrose broth, 30°C, shaking at 160 rpm) were pelleted (2000 g, 5 min), washed once in 0.5× potato dextrose broth (BD Biosciences, Franklin Lakes, NJ) and finally resuspended in the same media. Cells were seeded onto a 96-well plate (400 cells, 50 µL) and treated with an equal volume of varying concentrations of defensin in 0.5× potato dextrose broth. After incubating the samples (24 h, 30 °C), the plates were shaken to distribute the cells and growth was determined by performing a 9-well scan (600 nm) using a Spectramax M5e microplate reader (Molecular Devices, San Jose, CA). For assays testing defensin salt tolerance, C. albicans cells were instead resuspended in 1x potato dextrose broth and treated with an equal volume of CpoBD13 + NaCl solution at their intended concentrations. Propidium iodide (PI) uptake assays were performed by preparing the cells as per the standard growth inhibition assay however they were instead seeded onto a U-bottom 96-well plate (50,000 cells, 25 µL). […] For PI uptake experiments performed at a specific pH, the same method was followed with the exception that cells were resuspended in 1× potato dextrose broth while defensin titrations were diluted in 40 mM MES buffer at the intended pH. An example PI uptake gating strategy is presented in Supplementary Fig. 1d.

[1] = Calcein-encapsulated liposome lysis assay; format: biochemical
Method: as §1

[2] = target: PC:PA liposomes (95:5 molar ratio PC:PA); test: liposome pulldown; settings: 1 µg peptide, 95:5 molar ratio PC:PA, read off a plot
PC only liposomes = test: liposome pulldown; settings: 1 µg peptide, PC only, read off a plot
[3] = target: the molecule itself; test: cross-linking; BS(PEG)5 cross-linker; CpoBD13 (1 mg/mL stock) with 0 or 23 µM phosphatidic acid (08:0 PA; 0 or 0.092 mM stock), 20 mM HEPES pH 7.1, 30 min; SDS-PAGE and colloidal Coomassie
[4] = target: the molecule itself; test: cross-linking; BS(PEG)5 cross-linker; CpoBD13 or mutant (1 mg/mL stock) with 115 µM phosphatidic acid (08:0 PA; 0.46 mM stock), 20 mM HEPES pH 7.1, 30 min; SDS-PAGE and colloidal Coomassie
[5] = PC:PA 95:5 liposomes, replicate 1
[6] = PC:PA 95:5 liposomes, replicate 2
[7] = PC:PA 95:5 liposomes, replicate 3

Molecule: CpoBD13 (H35A): CpoBD13 point mutant H35A
- Fraction of total protein (%), bound fraction (Liposome pulldown; PC only liposomes, replicate 1): 23.8871%
- Fraction of total protein (%), bound fraction (Liposome pulldown; PC only liposomes, replicate 2): 10.4017%
- Fraction of total protein (%), bound fraction (Liposome pulldown; PC only liposomes, replicate 3): 20.2373%
- Fraction of total protein (%), Bound (Liposome pulldown; PC only liposomes, replicate 1): 14.047%
- Fraction of total protein (%), Bound (Liposome pulldown; PC only liposomes, replicate 2): 12.1176%
- Fraction of total protein (%), Bound (Liposome pulldown; PC only liposomes, replicate 3): 23.9918%
- Fraction of total protein (%), bound fraction (Liposome pulldown; [5]): 106.585%
- Fraction of total protein (%), bound fraction (Liposome pulldown; [6]): 65.0801%
- Fraction of total protein (%), bound fraction (Liposome pulldown; [7]): 97.4485%
- Fraction of total protein (%), Bound (Liposome pulldown; [5]): 42.5181%
- Fraction of total protein (%), Bound (Liposome pulldown; [6]): 53.6354%
- Fraction of total protein (%), Bound (Liposome pulldown; [7]): 32.306%
- fungal growth inhibition activity compared to the wild type (C. albicans ATCC 10231; IC50 comparison, two-tailed unpaired t test): No significant differences
- IC50 (C. albicans ATCC 10231; Replicate 1): 4.14 µM
- IC50 (C. albicans ATCC 10231; Replicate 2): 4.17 µM
- IC50 (C. albicans ATCC 10231; Replicate 3): 4.2 µM
- Lysis (%) ([1]; PC liposomes, replicate 1): 59.2077%
- Lysis (%) ([1]; PC liposomes, replicate 2): 47.882%
- Lysis (%) ([1]; PC liposomes, replicate 3): 48.469%
- Lysis (%) ([1]; PC:PA liposomes, replicate 1): 63.0445%
- Lysis (%) ([1]; PC:PA liposomes, replicate 2): 68.1197%
- Lysis (%) ([1]; PC:PA liposomes, replicate 3): 58.6174%

Molecule: Crocodylus porosus β-defensin 13 (CpoBD13) (from UniProt A0A7G6KN55) H21A
- response (% (fraction of total)) ([2]; pH 5.5, parent: est. 88): 69
- response (% (fraction of total)) ([2]; pH 7.4, parent: est. 43): 38
- response (% (fraction of total)) (PC only liposomes; pH 5.5, parent: est. 20): 15
- response (% (fraction of total)) (PC only liposomes; pH 7.4, parent: est. 15): 23

Molecule: Crocodylus porosus β-defensin 13 (CpoBD13) (from UniProt A0A7G6KN55) H33A
- response (% (fraction of total)) ([2]; pH 5.5, parent: est. 88): 78
- response (% (fraction of total)) ([2]; pH 7.4, parent: est. 43): 38
- response (% (fraction of total)) (PC only liposomes; pH 5.5, parent: est. 20): 20
- response (% (fraction of total)) (PC only liposomes; pH 7.4, parent: est. 15): 18

Molecule: Crocodylus porosus β-defensin 13 (CpoBD13) (from UniProt A0A7G6KN55) H35A
- response (% (fraction of total)) ([2]; pH 5.5, parent: est. 88): 90
- response (% (fraction of total)) ([2]; pH 7.4, parent: est. 43): 42
- response (% (fraction of total)) (PC only liposomes; pH 5.5, parent: est. 20): 18
- response (% (fraction of total)) (PC only liposomes; pH 7.4, parent: est. 15): 15

Molecule: Crocodylus porosus β-defensin 13 (CpoBD13) (from UniProt A0A7G6KN55) R9A
- response (% (fraction of total)) ([2]; pH 5.5, parent: est. 88): 80
- response (% (fraction of total)) ([2]; pH 7.4, parent: est. 43): 17
- response (% (fraction of total)) (PC only liposomes; pH 5.5, parent: est. 20): 34
- response (% (fraction of total)) (PC only liposomes; pH 7.4, parent: est. 15): 10

Molecule: Crocodylus porosus β-defensin 13 (CpoBD13) (from UniProt A0A7G6KN55) R17A
- response (% (fraction of total)) ([2]; pH 5.5, parent: est. 88): 87
- response (% (fraction of total)) ([2]; pH 7.4, parent: est. 43): 26
- response (% (fraction of total)) (PC only liposomes; pH 5.5, parent: est. 20): 22
- response (% (fraction of total)) (PC only liposomes; pH 7.4, parent: est. 15): 13

B1: Crocodylus porosus β-defensin 13 (CpoBD13) (peptide, UniProt A0A7G6KN55 22-61, looked up)
chain: NGSYYSTLQCRNNHGHCRRLCFHGEQWIGNCNGRHQHCCK
notes: Crocodylus porosus β-defensin 13, mature defensin domain (nucleotides 142-255 of XM_019537183.1, limits set with SignalP); 114 nucleotides would give 38 residues; Three disulphide bonds; also called wild type CpoBD13; saltwater crocodile defensin; source: Pichia pastoris (pPIC9 vector), purified by cation exchange chromatography
- stoichiometry N [3]: 2
- stoichiometry N [4]: ≤ 5
